Earlier results on 1 compound are cited in patent US20210299070A1, “METHODS OF TREATING CREATINE T[…]” (Jnana Therapeutics, Inc., priority 2018, published 2021).

Each structure is given as a SMILES string.

The conditions of data set [1]: patients with GAMT or AGAT deficiency; oral supplements.
The conditions of data set [2]: patients with CID (creatine transporter deficiency); oral supplements.

Consider `CN(CC(=O)O)C(=N)N.O` [creatine monohydrate], for which the clinical symptoms result in data set [1] is on record as “clinical symptoms improved”. Also, the response to treatment entry in data set [2] is “did not respond to treatment”.
